Experimental findings from patent US9656962B2, “Ring-contracted morphinans and the use thereof” (Purdue Pharma L.P., priority 2013, dated 2017) are described below.

This test has as its target μ-opioid receptor (Homo sapiens (Human), UniProt P35372). Description: μ-opioid receptor [35S]GTPγS functional assay, HEK-293 cells (Table 6). The class given is biochemical. The following applies: for Emax: relative to DAMGO; for EC50: μ GTP. How it is done:
μ-Opioid Receptor Functional Assay Procedures: [^35S]GTPγS functional assays were conducted using freshly thawed μ-receptor membranes prepared in-house from a cell line expressing recombinant μ opioid receptor in a HEK-293, CHO or U-2 OS cell background, or purchased from a commercial source (Perkin Elmer, Shelton, Conn.; or DiscovRx, Fremont, Calif.). Assay reactions were prepared by sequentially adding the following reagents to binding buffer (100 mM NaCl, 10 mM MgCl2, 20 mM HEPES, pH 7.4) on ice (final concentrations indicated): membrane protein (0.026 mg/mL), saponin ([…]), GDP ([…]) and [^35S]GTPγS (0.20 nM; Perkin Elmer, Shelton, Conn.). The prepared membrane solution (190 μl/well) was transferred to 96-shallow well polypropylene plates containing 10 μl of 20× concentrated stock solutions of the agonist [D-Ala^2, N-methyl-Phe^4 Gly-ol^5]-enkephalin (DAMGO) prepared in dimethyl sulfoxide (DMSO). Plates were incubated for 30 min at about 25° C. with shaking Reactions were terminated by rapid filtration onto 96-well Unifilter GF/B filter plates (Perkin Elmer, Shelton, Conn.) using a 96-well tissue harvester (Perkin Elmer, Shelton, Conn.) followed by three filtration washes with 200 μl of ice-cold wash buffer (10 mM NaH2PO4, 10 mM Na2HPO4, pH 7.4). Filter plates were subsequently dried at 50° C. for 2-3 hours. BetaScint scintillation cocktail (Perkin Elmer, Shelton, Conn.) was added (50 μl/well) and plates were counted using a Packard Top-Count for 1 min/well. Data were analyzed using the sigmoidal dose-response curve fitting functions in GraphPad PRISM v. 3.0, or an in-house function for non-linear, sigmoidal dose-response curve-fitting. [^35S]GTPγS functional assays can also be conducted using freshly thawed μ-receptor membranes prepared from a cell line expressing recombinant μ opioid receptor in a CHO-K1 cell background.
μ GTP Emax (%) is the maximal effect elicited by a compound relative to the effect elicited by DAMGO, a standard μ agonist. Generally, the μ GTP Emax (%) value measures the efficacy of a compound to treat or prevent pain or other Conditions.
The following TABLE 6 provides results on the activity response of certain Compounds of the Invention at the μ- and κ-opioid receptors determined as described above using HEK-293 cells.
A general note: GTPγS is a poorly hydrolysed GTP analogue; its binding reports G protein activation.

Where only a bound is given, the exact number is not on record here.

Broadly, the Emax is the greatest response seen or fitted, relative to the assay's reference. As a reminder, the EC50 is the concentration at which the effect is half-maximal. As to `Cc1ccc(CNC(=O)[C@@H]2C[C@]34CCN(C)[C@H](Cc5ccc(O)cc53)[C@]4(O)C2)cc1` [Compound 104, (2R,3aS,4R,9bS)-3a,8-dihydroxy-12-methyl-N-(4-methylbenzyl)-1,2,3,3a,4,5-hexahydro-4,9b-(epiminoethano)cyclo-penta[a]naphthalene-2-carboxamide], the Emax turned out to be 52 ± 3.51% and the response was half-maximal at 2.93 ± 1.08 µM (EC50).

On to `Cc1ccc(CNC(=O)[C@H]2C[C@]34CCN(C)[C@H](Cc5ccc(O)cc53)[C@]4(O)C2)cc1` [Compound 97, (2S,3aS,4R,9bS)-3a,8-dihydroxy-12-methyl-N-(4-methylbenzyl)-1,2,3,3a,4,5-hexahydro-4,9b-(epiminoethano)cyclo-penta[a]naphthalene-2-carboxamide], for which the Emax is 90.3 ± 0.88% and the midpoint of the response, the EC50, lay at 0.0281 ± 0.00154 µM.

Regarding `C[C@@H]1CN(CCNC(=O)[C@H]2C[C@]34CCN(CC5CC5)[C@H](Cc5ccc(O)cc53)[C@]4(O)C2)C[C@H](C)O1` [Compound 135, (2S,3aS,4R,9bS)-12-(cyclopropylmethyl)-N-(2-((2S,6R)-2,6-dimethylmorpholino)-ethyl)-3a,8-dihydroxy-1,2,3,3a,4,5-hexahydro-4,9b-(epiminoethano)cyclo-penta[a]naphthalene-2-carboxamide], the Emax came to 19.7 ± 0.89% and the EC50 worked out at 0.0103 ± 0.00103 µM.

As for `O=C(NCc1cccc(Cl)c1)[C@@H]1C[C@]23CCN(CC4CC4)[C@H](Cc4ccc(O)cc42)[C@]3(O)C1` [Compound 152, (2R,3aS,4R,9bS)-N-(3-chlorobenzyl)-12-(cyclopropylmethyl)-3a,8-dihydroxy-1,2,3,3a,4,5-hexahydro-4,9b-(epimino-ethano)cyclopenta[a]naphthalene-2-carboxamide], the Emax came to 4.45 ± 3.18%. The EC50 (bound given in μM) was > 20 µM.

With `O=C(NCc1cccc(O)c1)[C@@H]1C[C@]23CCN(CC4CC4)[C@H](Cc4ccc(O)cc42)[C@]3(O)C1` [Compound 142, (2R,3aS,4R,9bS)-12-(cyclopropylmethyl)-3a,8-dihydroxy-N-(3-hydroxybenzyl)-1,2,3,3a,4,5-hexahydro-4,9b-(epimino-ethano)cyclopenta[a]naphthalene-2-carboxamide], the Emax turned out to be 0%. In addition, the EC50 (bound given in μM) is > 20 µM.

On to `CC(C)CNC(=O)[C@H]1C[C@]23CCN(C)[C@H](Cc4ccc(O)cc42)[C@]3(O)C1` [Compound 102, (2S,3aS,4R,9bS)-3a,8-dihydroxy-N-isobutyl-12-methyl-1,2,3,3a,4,5-hexahydro-4,9b-(epiminoethano)cyclo-penta[a]naphthalene-2-carboxamide], for which the Emax turned out to be 49.5 ± 4.94% and the response was half-maximal at 0.655 ± 0.128 µM (EC50).

As for `CN1CC[C@]23C[C@@H](NC(=O)c4ccccc4)C[C@@]2(O)[C@H]1Cc1ccc(O)cc13` [Compound 110, N-((2R,3aS,4R,9bR)-3a,8-dihydroxy-12-methyl-1,2,3,3a,4,5-hexahydro-4,9b-(epiminoethano)cyclopenta[a]naphthalen-2-yl)benzamide], the Emax worked out at 35.2 ± 0.76% and the EC50 was determined as 8.41 ± 0.956 µM.

In the case of `O=C(NCCc1ccc(Cl)cc1)[C@@H]1C[C@]23CCN(CC4CC4)[C@H](Cc4ccc(O)cc42)[C@]3(O)C1` [Compound 129, (2R,3aS,4R,9bS)-N-(4-chlorophenethyl)-12-(cyclopropylmethyl)-3a,8-dihydroxy-1,2,3,3a,4,5-hexahydro-4,9b-(epimino-ethano)cyclopenta[a]naphthalene-2-carboxamide], the Emax came out at 1%. Also, the EC50 (bound given in μM) is > 20 µM.

On to `CN1CC[C@]23C[C@@H](C(=O)NCc4ccc(Cl)c(Cl)c4)C[C@@]2(O)[C@H]1Cc1ccc(O)cc13` [Compound 99, (2R,3aS,4R,9bS)-N-(3,4-dichlorobenzyl)-3a,8-dihydroxy-12-methyl-1,2,3,3a,4,5-hexahydro-4,9b-(epiminoethano)-cyclopenta[a]naphthalene-2-carboxamide], for which the Emax is 73.3 ± 1.2% and the EC50 worked out at 0.244 ± 0.0295 µM.

On to `O=C(NCc1cc(O)cc(O)c1)[C@@H]1C[C@]23CCN(CC4CC4)[C@H](Cc4ccc(O)cc42)[C@]3(O)C1` [Compound 139, (2R,3aS,4R,9bS)-12-(cyclopropylmethyl)-N-(3,5-dihydroxybenzyl)-3a,8-dihydroxy-1,2,3,3a,4,5-hexahydro-4,9b-(epimino-ethano)cyclopenta[a]naphthalene-2-carboxamide], for which the Emax is -1%. Also, the EC50 (bound given in μM) is > 20 µM.

As to `N#Cc1ccc2c(c1)[C@]13CCN(CC4CC4)[C@H](C2)[C@]1(O)C[C@@H](C(=O)NCCN1CCOCC1)C3` [Compound 123, (2S,3aS,4R,9bS)-8-cyano-12-(cyclopropylmethyl)-3a-hydroxy-N-(2-morpholinoethyl)-1,2,3,3a,4,5-hexahydro-4,9b-(epiminoethano)cyclopenta-[a]naphthalene-2-carboxamide], the Emax amounted to 10.5 ± 1.07% and the response was half-maximal at 2.92 ± 0.378 µM (EC50).

Turning to `Cc1ccc(CNC(=O)[C@H]2C[C@]34CCN(CC5CC5)[C@H](Cc5ccc(O)cc53)[C@]4(O)C2)cc1Cl` [Compound 137, (2S,3aS,4R,9bS)-N-(3-chloro-4-methylbenzyl)-12-(cyclopropylmethyl)-3a,8-dihydroxy-1,2,3,3a,4,5-hexahydro-4,9b-(epiminoethano)cyclopenta-[a]naphthalene-2-carboxamide], the Emax is 55.5 ± 0.31% and the EC50 is 0.00045 ± 6.1e-05 µM.

Consider `CN1CC[C@]23C[C@@H](C(=O)NCc4ccc(Cl)cc4Cl)C[C@@]2(O)[C@H]1Cc1ccc(O)cc13` [Compound 103, (2R,3aS,4R,9bS)-N-(2,4-dichlorobenzyl)-3a,8-dihydroxy-12-methyl-1,2,3,3a,4,5-hexahydro-4,9b-(epiminoethano)cyclo-penta[a]naphthalene-2-carboxamide], for which the Emax worked out at 68 ± 9.54% and the EC50 amounted to 0.389 ± 0.0733 µM.

In the case of `CN1CC[C@]23C[C@H](C(=O)NCc4ccc(Cl)c(Cl)c4)C[C@@]2(O)[C@H]1Cc1ccc(O)cc13` [Compound 101, (2S,3aS,4R,9bS)-N-(3,4-dichlorobenzyl)-3a,8-dihydroxy-12-methyl-1,2,3,3a,4,5-hexahydro-4,9b-(epiminoethano)cyclo-penta[a]naphthalene-2-carboxamide], the Emax amounted to 96.7 ± 2.19% and the response was half-maximal at 0.00158 ± 0.00022 µM (EC50).

With `CC(C)N1CCN(C(=O)[C@@H]2C[C@]34CCN(CC5CC5)[C@H](Cc5ccc(O)cc53)[C@]4(O)C2)CC1` [Compound 132, ((2R,3aS,4R,9bS)-12-(cyclopropylmethyl)-3a,8-dihydroxy-1,2,3,3a,4,5-hexahydro-4,9b-(epiminoethano)cyclopenta-[a]naphthalen-2-yl)(4-isopropylpiperazin-1-yl)methanone], the Emax was -1%. For the setting “bound given in μM”, the EC50 is > 20 µM.

With `O=C(NCc1ccc(F)cc1F)[C@H]1C[C@]23CCN(CC4CC4)[C@H](Cc4ccc(O)cc42)[C@]3(O)C1` [Compound 146, (2S,3aS,4R,9bS)-12-(cyclopropylmethyl)-N-(2,4-difluorobenzyl)-3a,8-dihydroxy-1,2,3,3a,4,5-hexahydro-4,9b-(epimino-ethano)cyclopenta[a]naphthalene-2-carboxamide], the Emax was determined as 28.3 ± 1.13% and the midpoint of the response, the EC50, lay at 0.00222 ± 0.00041 µM.

As for `CN1CC[C@]23C[C@H](NC(=O)c4ccccc4)C[C@@]2(O)[C@H]1Cc1ccc(O)cc13` [Compound 109, N-((2S,3aS,4R,9bR)-3a,8-dihydroxy-12-methyl-1,2,3,3a,4,5-hexahydro-4,9b-(epiminoethano)cyclopenta[a]naphthalen-2-yl)benzamide], the Emax came to 70.4 ± 0.98% and the EC50 was 0.0804 ± 0.0141 µM.

`C[C@@H]1CN(CCNC(=O)[C@@H]2C[C@]34CCN(CC5CC5)[C@H](Cc5ccc(O)cc53)[C@]4(O)C2)C[C@H](C)O1` [Compound 134, (2R,3aS,4R,9bS)-12-(cyclopropylmethyl)-N-(2-((2S,6R)-2,6-dimethylmorpholino)-ethyl)-3a,8-dihydroxy-1,2,3,3a,4,5-hexahydro-4,9b-(epiminoethano)-cyclopenta[a]naphthalene-2-carboxamide]: the Emax came to 9.53 ± 0.9% and the EC50 was 0.092 ± 0.0197 µM.

On to `Cc1ccc(CNC(=O)[C@H]2C[C@]34CCN(CC5CC5)[C@H](Cc5ccc(C#N)cc53)[C@]4(O)C2)cc1` [Compound 121, (2S,3aS,4R,9bS)-8-cyano-12-(cyclopropylmethyl)-3a-hydroxy-N-(4-methylbenzyl)-1,2,3,3a,4,5-hexahydro-4,9b-(epiminoethano)cyclopenta-[a]naphthalene-2-carboxamide], for which the Emax was determined as 29.3 ± 1.78% and the EC50 amounted to 1.09 ± 0.0702 µM.
